Source: patent publication US20240390334A1, “COMPOSITIONS AND METHODS FOR MITIGATING ALCOHOL LIVER DISEASE” (Research Foundation of the City University of New York, priority 2021, published 2024)

Experiments:
human RARβ2 receptors = molecular target: T1, human RARβ2 receptors (Homo sapiens, UniProt P10826); details: as described in Lund et al. (2005, J. Med. Chem., 48, 7517-7519); cited from earlier work
T1 sequence (P10826 1-448 isoform P10826-2): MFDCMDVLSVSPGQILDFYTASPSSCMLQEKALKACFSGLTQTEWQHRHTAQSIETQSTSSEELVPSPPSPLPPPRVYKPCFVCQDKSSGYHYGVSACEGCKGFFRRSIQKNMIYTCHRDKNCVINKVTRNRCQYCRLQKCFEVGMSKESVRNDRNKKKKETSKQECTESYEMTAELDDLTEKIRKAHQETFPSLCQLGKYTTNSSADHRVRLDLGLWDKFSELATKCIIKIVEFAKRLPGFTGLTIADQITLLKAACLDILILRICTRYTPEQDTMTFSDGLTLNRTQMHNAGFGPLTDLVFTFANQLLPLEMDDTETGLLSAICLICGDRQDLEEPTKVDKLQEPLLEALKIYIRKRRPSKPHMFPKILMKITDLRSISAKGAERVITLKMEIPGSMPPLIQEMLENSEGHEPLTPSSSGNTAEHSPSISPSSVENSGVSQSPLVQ

4-HNE = test: Hepatic 4-HNE IHC (indirect readout of oxidative stress) in liquid ethanol diet model; assay type: in vivo, mouse (male C57BL/6J); details: EtOH-AC261 vs EtOH mice
Description: (§1) Liquid Ethanol Diet. Male C57BL/6J mice (8-9-weeks-old) (n=30) were purchased from Jackson Laboratory. Animals were housed in standard cages with 2-mice per cage and fed a standard vivarium chow (rodent diet #2014, Harlan-Teklad, Madison, WI). After acclimation to liquid feeding, mice were switched to the Lieber-DeCarli-liquid alcohol diet for 3 weeks using the following groups: 1) Control diet-fed mice (aka Pair-fed (PF), n=6), 2) Pair-fed mice+RARβ2 specific agonist AC261066 (Tocris #4046), at 10 mg/kg/day [Pair-fed+AC261, (n=4)] (PF-AC), 3) Alcohol-treated (5% ethanol (EtOH) v/v plus vehicle [0.1% DMSO], n=10) (EtOH), and iv) 4) EtOH+AC261, [10 mg/kg/day], n=10)] (EtOH-AC).
(§2) AC261066 and ethanol modulate centrilobular protein expression of ALDH1A1, CYP2E1, and Oxidative Stress. ALDH1A1 is one of the rate-limiting enzymes in the oxidation of retinaldehyde to RA and a key contributor to hepatic RA synthesis, as mice lacking ALDH1A1 show reduced hepatic levels of RA. […] Therefore, hepatic protein levels of ALDH1A1 were measured next, as it was the only ALDH1A isoform to increase in EtOH compared to PF mice. […] Therefore, given that high levels of ALDH1A1 were specifically detected only in zone 2-3, centrilobular regions, hepatic CYP2E1 protein levels were next measured by western blot and IHC, and by IHC, 4-HNE, as an indirect readout of oxidative stress. […]

ethanol-fed mice [1] = test: Hepatic steatosis (histopathology, Oil Red O, hepatic triglycerides) in Lieber-DeCarli liquid ethanol diet model of early ALD; assay type: in vivo, mouse (male C57BL/6J); details: EtOH-AC261 vs EtOH mice, 10 mg/kg/day, 3 weeks
Description: as §1

[2] = Tolerability and general observations (food intake, body weight, blood alcohol, hepatic drug level, hepatotoxicity, fibrosis) in liquid ethanol diet study; assay type: in vivo, mouse (male C57BL/6J)
Description: as §1

ethanol-fed mice [3] = test: Plasma AST and ALT activity (liver injury markers) in liquid ethanol diet model; assay type: in vivo, mouse (male C57BL/6J); details: EtOH-AC261 vs EtOH mice; 10 mg/kg/day, 3 weeks
Description: as §1

ALDH1A1 = test: Hepatic ALDH1A1 protein by western blot and IHC in liquid ethanol diet model; assay type: in vivo, mouse (male C57BL/6J); details: EtOH-AC vs EtOH mice
Description: as §1, §2

[4] = system: genes involved in de novo lipogenesis and fatty acid β-oxidation; test: RNA-seq of hepatic transcripts of lipid metabolism genes in liquid ethanol diet model; assay type: in vivo, mouse (male C57BL/6J)
Description: as §1
The mechanism by which AC261066 functions in lipid metabolism, including de novo lipogenesis and fatty acid β-oxidation in the liver, was assessed.

CYP2E1 = test: Hepatic CYP2E1 protein by western blot and IHC in liquid ethanol diet model; assay type: in vivo, mouse (male C57BL/6J); details: EtOH-AC261066 vs EtOH mice
Description: as §1, §2

[5] = 5% ETOH-fed mice with vs without AC261066
[6] = 5% ETOH-fed plus AC261066 vs ETOH-fed mice without AC261066

**Q.** With `CCCCCCCCc1ccc(-c2ccc(C(=O)O)cc2)cc1` [AC55649] as the compound, how does the “isoform selectivity of agonism at human RARβ2 receptors” value (human RARβ2 receptors) read?
**A.** highly isoform-selective agonists

**Q.** Which “decrease in hepatic levels of 4-HNE” value (4-HNE) does the source give for `CCCCOCCOc1nc(-c2ccc(C(=O)O)c(F)c2)sc1C` [AC261066] here?
**A.** 36%

**Q.** And the “decrease in hepatic levels of 4-HNE (first value)” value (4-HNE)?
**A.** 33%

**Q.** What about the “reduction in Oil red O lipid-staining” value (ethanol-fed mice [1]) of the same compound?
**A.** 41%

**Q.** And the “reduction in hepatic triglycerides” value (ethanol-fed mice [1])?
**A.** 35%

**Q.** What about the “reduction in macrovesicular steatosis” value (ethanol-fed mice [1]; 5% EtOH diet) of the same compound?
**A.** 72%

**Q.** And the “reduction in microvesicular steatosis” value (ethanol-fed mice [1]; 5% EtOH diet)?
**A.** 82%

**Q.** What about the “changes to hepatic steatosis, triglyceride levels, fibrosis, or liver injury” value ([2]; PF+AC261 mice (pair-fed, no ethanol), 10 mg/kg/day, 3 weeks) of the same compound?
**A.** No evidence was found of changes

**Q.** What about the “daily food intake and body weights” value ([2]; all groups, entire length of the study) of the same compound?
**A.** no group differences

**Q.** And the hepatoxicity or fibrosis ([2]; concomitant administration of AC261 with EtOH, 3 weeks)?
**A.** no evidence

**Q.** And the “effect of EtOH on hepatic AC261 levels” value ([2]; concomitant administration with EtOH, 3 weeks)?
**A.** did not adversely impact

**Q.** And the “reduction in plasma activity of ALT” value (ethanol-fed mice [3])?
**A.** ~30%

**Q.** What about the “reduction in plasma activity of AST” value (ethanol-fed mice [3]) of the same compound?
**A.** ~30%

**Q.** What about the “reduction in zone 2-3, centrilobular ALDH1A1 protein immunoreactivity” value (ALDH1A1; IHC) of the same compound?
**A.** 40%

**Q.** What about the “reduction in ALDH1A1 total protein” value (ALDH1A1; western blot) of the same compound?
**A.** 32%

**Q.** What about the “isoform selectivity of agonism at human RARβ2 receptors” value (human RARβ2 receptors) of the same compound?
**A.** highly isoform-selective agonists

**Q.** And the “EtOH-induced increase in hepatic Fasn mRNA level” value [4, 5]?
**A.** eliminated or attenuated

**Q.** What about the “EtOH-induced increase in hepatic Mogat1 mRNA level” value [4, 5] of the same compound?
**A.** eliminated or attenuated

**Q.** And the “EtOH-induced increase in hepatic Pparg mRNA level” value [4, 5]?
**A.** eliminated or attenuated

**Q.** And the “hepatic CPT1-α transcripts” value [4, 6]?
**A.** increased

**Q.** What about the “hepatic Ppara transcripts” value [4, 6] of the same compound?
**A.** increased

**Q.** What about the “reduction in zone 2-3 centrilobular CYP2E1 protein levels” value (CYP2E1; IHC) of the same compound?
**A.** ~39%

**Q.** And the “reduction in hepatic CYP2E1 protein levels” value (CYP2E1; total protein)?
**A.** approximately 31%
